Laboratory results: US20230085307A1, “PYRIDAZINONE COMPOUND AND HERBICIDE” (NISSAN CHEMICAL CORPORATION, priority 2019, published 2023)

Tests used:
[1] = tested on: oval-leafed pondweed; assay: Test Example 2: herbicidal activity, application during weed generation under submerged conditions (Table 17, symbol C); assay type: in vivo, oval-leafed pondweed (Monochoria vaginalis); conditions: AAH 320 g/ha; application during weed generation, submerged conditions
How it was run: (§1)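 Wagner pot, alluvial soil, 4 cm flood; mixed sowing of all species; greenhouse 25° C.–30° C. Emulsifiable formulation, water-diluted to predetermined dose, applied to paddy water at 1–2 leaf stage. Effect rated at 3 wk using the earlier test's scoring criteria.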

[2] = tested on: rice flat sedge; assay: Test Example 3: herbicidal effect by foliage application, Wagner pot (Table 18, symbol E); assay type: in vivo, rice flat sedge (Cyperus iria); conditions: amount of applied herbicide 320 g/ha
How it was run: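 Plants were sown in alluvial soil held under 0.1–0.5 cm standing water and grown 14 days in a greenhouse at 25–30 °C. An emulsifiable formulation, water-diluted to the set dose, was then sprayed onto the foliage, and effects were scored three weeks later using previously defined criteria.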

[3] = tested on: late watergrass; assay: Test Example 1: herbicidal activity, application before weed generation under submerged conditions (Table 16, symbol A); assay type: in vivo, late watergrass (Echinochloa oryzicola); conditions: 320 g/ha applied herbicide
How it was run: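 Alluvial soil was flooded to 4 cm depth, weed seeds were sown mixed and 2.5-leaf rice seedlings were transplanted. On sowing day, the compound's emulsion, diluted in water to a set dose, was applied to the water surface. Plants grew at 25–30 °C and were scored 0–5 after three weeks.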

[4] = tested on: redroot pigweed; assay: Test Example 4: herbicidal effect by soil treatment (Table 19, symbol N); assay type: in vivo, redroot pigweed (Amaranthus retroflexus); conditions: amount of applied herbicide 320 g/ha
How it was run: (§2)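 Pre-emergence style soil spray: seeds under ~1.5 cm sterilized diluvial soil received a uniform coat of emulsion diluted to the predetermined herbicide amount. Greenhouse 25–30° C; readout at week three on previously defined criteria.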

[5] = tested on: Japanese bulrush; assay: Test Example 2: herbicidal activity, application during weed generation under submerged conditions (Table 17, symbol B); assay type: in vivo, Japanese bulrush (Schoenoplectus juncoides); conditions: AAH 320 g/ha; application during weed generation, submerged conditions
How it was run: as §1

[6] = tested on: persian speedwell; assay: Test Example 5: herbicidal effect by foliage application, plastic box (Table 20, symbol R); assay type: in vivo, Persian speedwell (Veronica persica); conditions: foliage application, AAH 320 g/ha, evaluated three weeks after application
How it was run: (§3)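 Plants were sown into sterilized diluvial soil under about 1.5 cm cover and kept in a greenhouse at 25° C. to 30° C. Fourteen days on, foliage received an even spray of the diluted emulsion. Herbicidal or crop effect was judged three weeks afterwards.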

[7] = tested on: chickweed; assay: Test Example 4: herbicidal effect by soil treatment (Table 19, symbol P); assay type: in vivo, common chickweed (Stellaria media); conditions: amount of applied herbicide 320 g/ha
How it was run: as §2

[8] = tested on: Italian ryegrass; assay: Test Example 4: herbicidal effect by soil treatment (Table 19, symbol K); assay type: in vivo, Italian ryegrass (Lolium multiflorum); conditions: amount of applied herbicide 320 g/ha
How it was run: as §2

[9] = tested on: green foxtail; assay: Test Example 5: herbicidal effect by foliage application, plastic box (Table 20, symbol G); assay type: in vivo, green foxtail (Setaria viridis); conditions: foliage application, AAH 320 g/ha, evaluated three weeks after application
How it was run: as §3

[10] = tested on: southern crabgrass; assay: Test Example 4: herbicidal effect by soil treatment (Table 19, symbol F); assay type: in vivo, southern crabgrass (Digitaria ciliaris); conditions: amount of applied herbicide 320 g/ha
How it was run: as §2

[11] = tested on: southern crabgrass; assay: Test Example 5: herbicidal effect by foliage application, plastic box (Table 20, symbol F); assay type: in vivo, southern crabgrass (Digitaria ciliaris); conditions: foliage application, AAH 320 g/ha, evaluated three weeks after application
How it was run: as §3

[12] = tested on: green foxtail; assay: Test Example 4: herbicidal effect by soil treatment (Table 19, symbol G); assay type: in vivo, green foxtail (Setaria viridis); conditions: amount of applied herbicide 320 g/ha
How it was run: as §2

[13] = tested on: wild oat; assay: Test Example 5: herbicidal effect by foliage application, plastic box (Table 20, symbol I); assay type: in vivo, wild oat (Avena fatua); conditions: foliage application, AAH 320 g/ha, evaluated three weeks after application
How it was run: as §3

[14] = tested on: windgrass; assay: Test Example 5: herbicidal effect by foliage application, plastic box (Table 20, symbol L); assay type: in vivo, windgrass (Apera spica-venti); conditions: foliage application, AAH 320 g/ha, evaluated three weeks after application
How it was run: as §3

[15] = tested on: chickweed; assay: Test Example 5: herbicidal effect by foliage application, plastic box (Table 20, symbol P); assay type: in vivo, common chickweed (Stellaria media); conditions: foliage application, AAH 320 g/ha, evaluated three weeks after application
How it was run: as §3

[16] = tested on: blackgrass; assay: Test Example 4: herbicidal effect by soil treatment (Table 19, symbol J); assay type: in vivo, blackgrass (Alopecurus myosuroides); conditions: amount of applied herbicide 320 g/ha
How it was run: as §2

## CCCC(=O)Oc1c(C)nn(C)c(=O)c1-c1c(-c2ccc(SC(C)C)cc2)sc2ccc(F)cc12 [2-253]
[1]
  herbicidal effect rating, C: oval-leafed pondweed: 3 (Herbicidal rate of 40% or more and less than 70%)
[2]
  herbicidal effect on E: rice flat sedge: 4 (Herbicidal rate of 70% or more and less than 90%)
[3]
  Herbicidal effect on A: late watergrass (grade 0-5): 5 (Herbicidal rate of 90% or more (almost completely withered))
[4]
  herbicidal effect on N: redroot pigweed: 5 (Herbicidal rate of 90% or more (almost completely withered))
[5]
  herbicidal effect rating, B: Japanese bulrush: 3 (Herbicidal rate of 40% or more and less than 70%)
[6]
  R: persian speedwell, herbicidal effect (criteria 0-5): 5 (Herbicidal rate of 90% or more (almost completely withered))
[7]
  herbicidal effect on P: chickweed: 3 (Herbicidal rate of 40% or more and less than 70%)
[8]
  herbicidal effect on K: Italian ryegrass: 0 (Herbicidal rate of 5% or less (almost no effect))
[9]
  G: green foxtail, herbicidal effect (criteria 0-5): 5 (Herbicidal rate of 90% or more (almost completely withered))
[10]
  herbicidal effect on F: southern crabgrass: 0 (Herbicidal rate of 5% or less (almost no effect))
[11]
  F: southern crabgrass, herbicidal effect (criteria 0-5): 4 (Herbicidal rate of 70% or more and less than 90%)
[12]
  herbicidal effect on G: green foxtail: 0 (Herbicidal rate of 5% or less (almost no effect))
[13]
  I: wild oat, herbicidal effect (criteria 0-5): 2 (Herbicidal rate of 20% or more and less than 40%)
[14]
  L: windgrass, herbicidal effect (criteria 0-5): 3 (Herbicidal rate of 40% or more and less than 70%)
[15]
  P: chickweed, herbicidal effect (criteria 0-5): 5 (Herbicidal rate of 90% or more (almost completely withered))
[16]
  herbicidal effect on J: blackgrass: 0 (Herbicidal rate of 5% or less (almost no effect))

## Cc1nn(C)c(=O)c(-c2c(-c3ccc(CSCC(F)(F)F)cc3)sc3ccc(F)cc23)c1O [2-331]
[1]
  herbicidal effect rating, C: oval-leafed pondweed: 0 (Herbicidal rate of 5% or less (almost no effect))
[2]
  herbicidal effect on E: rice flat sedge: 4 (Herbicidal rate of 70% or more and less than 90%)
[3]
  Herbicidal effect on A: late watergrass (grade 0-5): 3 (Herbicidal rate of 40% or more and less than 70%)
[4]
  herbicidal effect on N: redroot pigweed: 5 (Herbicidal rate of 90% or more (almost completely withered))
[5]
  herbicidal effect rating, B: Japanese bulrush: 0 (Herbicidal rate of 5% or less (almost no effect))
[6]
  R: persian speedwell, herbicidal effect (criteria 0-5): 5 (Herbicidal rate of 90% or more (almost completely withered))
[7]
  herbicidal effect on P: chickweed: 0 (Herbicidal rate of 5% or less (almost no effect))
[8]
  herbicidal effect on K: Italian ryegrass: 5 (Herbicidal rate of 90% or more (almost completely withered))
[9]
  G: green foxtail, herbicidal effect (criteria 0-5): 5 (Herbicidal rate of 90% or more (almost completely withered))
[10]
  herbicidal effect on F: southern crabgrass: 3 (Herbicidal rate of 40% or more and less than 70%)
[11]
  F: southern crabgrass, herbicidal effect (criteria 0-5): 5 (Herbicidal rate of 90% or more (almost completely withered))
[12]
  herbicidal effect on G: green foxtail: 4 (Herbicidal rate of 70% or more and less than 90%)
[13]
  I: wild oat, herbicidal effect (criteria 0-5): 3 (Herbicidal rate of 40% or more and less than 70%)
[14]
  L: windgrass, herbicidal effect (criteria 0-5): 4 (Herbicidal rate of 70% or more and less than 90%)
[15]
  P: chickweed, herbicidal effect (criteria 0-5): 5 (Herbicidal rate of 90% or more (almost completely withered))
[16]
  herbicidal effect on J: blackgrass: 0 (Herbicidal rate of 5% or less (almost no effect))
